Test results: patent US7166738B2, “Non-nucleoside reverse transcriptase inhibitors” (Roche Palo Alto LLC, priority 2004, dated 2007)

| SMILES | melting point [°C] |
| --- | --- |
| CCc1ccc(CC(=O)Nc2ccc(S(N)(=O)=O)cc2C)cc1Oc1cc(Cl)cc(Br)c1Cl [Compound I-36, 2-[3-(3-Bromo-2,5-dichloro-phenoxy)-4-ethyl-phenyl]-N-(2-methyl-4-sulfamoyl-phenyl)-acetamide] | 213.2 to 219.6 |
| CCc1ccc(CC(=O)Nc2ccccc2Cl)cc1Oc1cc(Cl)cc(Br)c1Cl [Compound I-37, 2-[3-(3-Bromo-2,5-dichloro-phenoxy)-4-ethyl-phenyl]-N-(2-chloro-phenyl)-acetamide] | 146.5 to 147.6 |
| CCc1ccc(CC(=O)Nc2ccccc2Cl)cc1Oc1cc(Br)cc(Br)c1Cl [Compound I-38, N-(2-Chloro-phenyl)-2-[3-(3,5-dibromo-2-chloro-phenoxy)-4-ethyl-phenyl]-acetamide] | 155.5 to 155.8 |
| CCc1ccc(CC(=O)Nc2ccc(S(N)(=O)=O)cc2)cc1Oc1cc(Br)cc(F)c1Cl [Compound I-39, 2-[3-(5-Bromo-2-chloro-3-fluoro-phenoxy)-4-ethyl-phenyl]-N-(4-sulfamoyl-phenyl)-acetamide] | 209.9 to 211.1 |
| CCc1ccc(CC(=O)Nc2ccc(S(N)(=O)=O)cc2C)cc1Oc1cc(Br)cc(F)c1Cl [Compound I-40, 2-[3-(5-Bromo-2-chloro-3-fluoro-phenoxy)-4-ethyl-phenyl]-N-(2-methyl-4-sulfamoyl-phenyl)-acetamide] | 207 to 209.9 |
| CCc1ccc(CC(=O)Nc2ccccc2Cl)cc1Oc1cc(Br)cc(F)c1Cl [Compound I-41, 2-[3-(5-Bromo-2-chloro-3-fluoro-phenoxy)-4-ethyl-phenyl]-N-(2-chloro-phenyl)-acetamide] | 146.6 to 147.2 |
| CCc1ccc(CC(=O)Nc2ccc(S(N)(=O)=O)cc2)cc1Oc1cc(Cl)cc(C#N)c1 [Compound I-45, 2-[3-(3-Chloro-5-cyano-phenoxy)-4-ethyl-phenyl]-N-(4-sulfamoyl-phenyl)-acetamide] | 170.7 to 172.4 |
| CCc1ccc(CC(=O)Nc2ccc(S(=O)(=O)NC)cc2)cc1Oc1cc(Cl)cc(C#N)c1 [Compound I-48, 2-[3-(3-Chloro-5-cyano-phenoxy)-4-ethyl-phenyl]-N-(4-methylsulfamoyl-phenyl)-acetamide] | 149.1 to 151.3 |
| CCc1ccc(CC(=O)Nc2ccc(S(N)(=O)=O)cc2)cc1Oc1cc(C#N)cc(F)c1Cl [Compound I-49, 2-[3-(2-Chloro-5-cyano-3-fluoro-phenoxy)-4-ethyl-phenyl]-N-(4-sulfamoyl-phenyl)-acetamide] | 167.9 to 170.5 |
| CCc1ccc(CC(=O)Nc2ccc(S(N)(=O)=O)cc2C)cc1Oc1cc(C#N)cc(F)c1Cl [Compound I-50, 2-[3-(2-Chloro-5-cyano-3-fluoro-phenoxy)-4-ethyl-phenyl]-N-(2-methyl-4-sulfamoyl-phenyl)-acetamide] | 217.6 to 220.4 |
| CCc1ccc(CC(=O)Nc2ccc(S(N)(=O)=O)cc2)cc1Oc1cc(C#N)cc(C#N)c1Cl [Compound I-52, 2-[3-(2-Chloro-3,5-dicyano-phenoxy)-4-ethyl-phenyl]-N-(4-sulfamoyl-phenyl)-acetamide] | 119.7 to 123.3 |
| CCc1ccc(CC(=O)Nc2ccc(S(N)(=O)=O)cc2C)cc1Oc1cc(C#N)cc(C#N)c1Cl [Compound I-53, 2-[3-(2-Chloro-3,5-dicyano-phenoxy)-4-ethyl-phenyl]-N-(2-methyl-4-sulfamoyl-phenyl)-acetamide] | 199.4 to 205.3 |
| Cc1cc(C#N)cc(C)c1Oc1cc(CC(=O)Nc2ccc(S(N)(=O)=O)cc2)ccc1Cl [Compound I-55, 2-[4-Chloro-3-(4-cyano-2,6-dimethyl-phenoxy)-phenyl]-N-(4-sulfamoyl-phenyl)-acetamide] | 227.3 to 231.4 |
| Cc1cc(S(N)(=O)=O)ccc1NC(=O)Cc1ccc(Cl)c(Oc2c(C)cc(C#N)cc2C)c1 [Compound I-56, 2-[4-Chloro-3-(4-cyano-2,6-dimethyl-phenoxy)-phenyl]-N-(2-methyl-4-sulfamoyl-phenyl)-acetamide] | 232.1 to 234.6 |
| CCc1ccc(CC(=O)Nc2ccccc2Cl)cc1Oc1cc(C#N)cc(F)c1Cl [Compound I-59, 2-[3-(2-Chloro-5-cyano-3-fluoro-phenoxy)-4-ethyl-phenyl]-N-(2-chloro-phenyl)-acetamide] | 142.1 to 142.8 |
| CCc1ccc(CC(=O)Nc2ccccc2Cl)cc1Oc1cc(C#N)cc(C#N)c1Cl [Compound I-60, 2-[3-(2-Chloro-3,5-dicyano-phenoxy)-4-ethyl-phenyl]-N-(2-chloro-phenyl)-acetamide] | 110 to 111.5 |
| COc1ccc(CC(=O)Nc2ccccc2Cl)cc1Oc1cc(C#N)ccc1Cl [Compound I-62, 2-[3-(2-Chloro-5-cyano-phenoxy)-4-methoxy-phenyl]-N-(2-chloro-phenyl)-acetamide] | 194 to 197.8 |
| COc1ccc(CC(=O)Nc2ccc(S(N)(=O)=O)cc2)cc1Oc1cc(C#N)ccc1Cl [Compound I-65, 2-[3-(2-Chloro-5-cyano-phenoxy)-4-methoxy-phenyl]-N-(4-sulfamoyl-phenyl)-acetamide] | 252.3 to 254.3 |
| Cc1cc(C#N)cc(C)c1Oc1cc(CC(=O)Nc2ccccc2Cl)ccc1Cl [Compound I-68, 2-[4-Chloro-3-(4-cyano-2,6-dimethyl-phenoxy)-phenyl]-N-(2-chloro-phenyl)-acetamide] | 183.9 to 185.1 |
| Cc1cc(S(N)(=O)=O)ccc1NC(=O)Cc1ccc(C)c(Oc2cc(Cl)cc(C#N)c2)c1F [Compound I-74, 2-[3-(3-Chloro-5-cyano-phenoxy)-2-fluoro-4-methyl-phenyl]-N-(2-methyl-4-sulfamoyl-phenyl)-acetamide] | 230 to 232.2 |
| Cc1cc(S(N)(=O)=O)ccc1NC(=O)Cc1ccc(C)c(Oc2cc(C#N)cc(C(F)F)c2)c1F [Compound I-85, 2-[3-(3-Cyano-5-difluoromethyl-phenoxy)-2-fluoro-4-methyl-phenyl]-N-(2-methyl-4-sulfamoyl-phenyl)-acetamide] | 218 to 220.4 |
| Cc1ccc(CC(=O)Nc2ccccc2Cl)c(F)c1Oc1cc(C#N)cc(C(F)F)c1 [Compound I-86, N-(2-Chloro-phenyl)-2-[3-(3-cyano-5-difluoromethyl-phenoxy)-2-fluoro-4-methyl-phenyl]-acetamide] | 163.3 to 164.4 |
| N#Cc1cc(Oc2cc(CC(=O)Nc3ccc(S(N)(=O)=O)cc3)ccc2Cl)cc(C(F)(F)F)c1 [Compound I-88, 2-[4-Chloro-3-(3-cyano-5-trifluoromethyl-phenoxy)-phenyl]-N-(4-sulfamoyl-phenyl)-acetamide] | 219 to 221.4 |

The next lines start with the values.

| melting point [°C] | SMILES |
| --- | --- |
| 228.6 to 230.9 | Cc1cc(S(N)(=O)=O)ccc1NC(=O)Cc1ccc(C)c(Oc2cc(C#N)cc(C#N)c2)c1 [Compound I-43, 2-[3-(3,5-Dicyano-phenoxy)-4-methyl-phenyl]-N-(2-methyl-4-sulfamoyl-phenyl)-acetamide] |
| 209.9 to 211.5 | Cc1ccc(CC(=O)Nc2ccc(S(N)(=O)=O)cc2Cl)cc1Oc1cc(C#N)cc(C#N)c1 [Compound I-44, N-(2-Chloro-4-sulfamoyl-phenyl)-2-[3-(3,5-dicyano-phenoxy)-4-methyl-phenyl]-acetamide] |
| 189.1 to 189.4 | CCc1ccc(CC(=O)Nc2ccc(S(N)(=O)=O)cc2C)cc1Oc1cc(Cl)cc(C#N)c1 [Compound I-46, 2-[3-(3-Chloro-5-cyano-phenoxy)-4-ethyl-phenyl]-N-(2-methyl-4-sulfamoyl-phenyl)-acetamide] |
| 181.1 to 183.9 | CCc1ccc(CC(=O)Nc2ccc(S(N)(=O)=O)cc2Cl)cc1Oc1cc(Cl)cc(C#N)c1 [Compound I-47, 2-[3-(3-Chloro-5-cyano-phenoxy)-4-ethyl-phenyl]-N-(2-chloro-4-sulfamoyl-phenyl)-acetamide] |
| 180.3 to 183.1 | CCc1ccc(CC(=O)Nc2ccc(S(N)(=O)=O)cc2Cl)cc1Oc1cc(C#N)cc(C#N)c1Cl [Compound I-54, 2-[3-(2-Chloro-3,5-dicyano-phenoxy)-4-ethyl-phenyl]-N-(2-chloro-4-sulfamoyl-phenyl)-acetamide] |
| 218.3 to 221.4 | COc1ccc(CC(=O)Nc2ccc(S(N)(=O)=O)cc2)cc1Oc1cc(Cl)cc(C#N)c1 [Compound I-57, 2-[3-(3-Chloro-5-cyano-phenoxy)-4-methoxy-phenyl]-N-(4-sulfamoyl-phenyl)-acetamide] |
| 175.7 to 178.3 | COc1ccc(CC(=O)Nc2ccccc2Cl)cc1Oc1cc(Cl)cc(C#N)c1 [Compound I-61, 2-[3-(3-Chloro-5-cyano-phenoxy)-4-methoxy-phenyl]-N-(2-chloro-phenyl)-acetamide] |
| 186.3 to 189.7 | COc1ccc(CC(=O)Nc2ccc(S(N)(=O)=O)cc2Cl)cc1Oc1cc(Cl)cc(C#N)c1 [Compound I-64, 2-[3-(3-Chloro-5-cyano-phenoxy)-4-methoxy-phenyl]-N-(2-chloro-4-sulfamoyl-phenyl)-acetamide] |
| 232.9 to 236.9 | COc1ccc(CC(=O)Nc2ccc(S(N)(=O)=O)cc2C)cc1Oc1cc(C#N)ccc1Cl [Compound I-66, 2-[3-(2-Chloro-5-cyano-phenoxy)-4-methoxy-phenyl]-N-(2-methyl-4-sulfamoyl-phenyl)-acetamide] |
| 214.6 to 216.4 | COc1ccc(CC(=O)Nc2ccc(S(N)(=O)=O)cc2Cl)cc1Oc1cc(C#N)ccc1Cl [Compound I-67, 2-[3-(2-Chloro-5-cyano-phenoxy)-4-methoxy-phenyl]-N-(2-chloro-4-sulfamoyl-phenyl)-acetamide] |
| 222.3 to 224.3 | COc1ccc(CC(=O)Nc2ccc(S(N)(=O)=O)cc2C)cc1Oc1cc(Cl)cc(C#N)c1 [Compound I-73, 2-[3-(3-Chloro-5-cyano-phenoxy)-4-methoxy-phenyl]-N-(2-methyl-4-sulfamoyl-phenyl)-acetamide] |
| 211.6 to 214.6 | Cc1cc(S(N)(=O)=O)ccc1NC(=O)Cc1ccc(Cl)c(Oc2cc(C#N)cc(C(F)(F)F)c2)c1 [Compound I-89, 2-[4-Chloro-3-(3-cyano-5-trifluoromethyl-phenoxy)-phenyl]-N-(2-methyl-4-sulfamoyl-phenyl)-acetamide] |
| 198 to 202 | N#Cc1cc(Oc2cc(CC(=O)Nc3ccc(S(N)(=O)=O)cc3Cl)ccc2Cl)cc(C(F)(F)F)c1 [Compound I-90, 2-[4-Chloro-3-(3-cyano-5-trifluoromethyl-phenoxy)-phenyl]-N-(2-chloro-4-sulfamoyl-phenyl)-acetamide] |
